{
  "source": "patent US4956362A",
  "about": "“Use of carpipramine for the treatment of anxiety and sleep disorders” (Rhone-Poulenc Sante, a French Body Corporate, priority 1988, dated 1990)",
  "key": {"[1]": {"biological_target": "T1, central serotonin receptor sites (type S2) (Rattus norvegicus, UniProt P14842)", "T1 construct": "central serotonin receptor sites (type S2); from tissue; the cited Leysen 1982 method used rat prefrontal/frontal cortex, own knowledge", "T1 sequence (P14842 whole entry)": "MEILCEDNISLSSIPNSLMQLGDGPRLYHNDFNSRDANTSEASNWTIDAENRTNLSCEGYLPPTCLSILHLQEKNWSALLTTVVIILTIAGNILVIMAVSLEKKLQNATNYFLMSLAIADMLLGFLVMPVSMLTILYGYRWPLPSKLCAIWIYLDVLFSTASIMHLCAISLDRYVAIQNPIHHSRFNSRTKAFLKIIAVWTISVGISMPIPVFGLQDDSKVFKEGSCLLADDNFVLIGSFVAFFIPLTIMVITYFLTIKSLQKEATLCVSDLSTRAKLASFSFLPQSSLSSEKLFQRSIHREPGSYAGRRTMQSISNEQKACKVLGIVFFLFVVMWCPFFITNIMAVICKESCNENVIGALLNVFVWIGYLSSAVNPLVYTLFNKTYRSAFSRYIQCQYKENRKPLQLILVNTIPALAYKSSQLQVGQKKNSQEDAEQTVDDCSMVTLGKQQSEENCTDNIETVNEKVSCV", "assay": "Affinity for central serotonin receptor sites (type S2), tritiated ketanserin binding", "experimental": "The affinity of carpipramine for central serotonin receptor sites (type S2) was determined by a technique based on that of J. E. LEYSEN et al., Mol. Pharmacol. 21, 301 (1982), which consists in measuring the affinity of the product for binding sites for tritiated ketanserin. In this test, the IC50 of carpipramine is 3 nM."}, "[2]": {"test_system": "mescaline-induced heat twitches", "assay": "Antagonism of mescaline-induced heat twitches in mice", "format": "in vivo", "conditions": "Mus musculus, sc, subcutaneously administered, read-out: AD50 (the source's name)", "experimental": "In this test, the AD50 of subcutaneously administered carpipramine is 8 mg/kg."}, "[3]": {"assay": "Acute oral toxicity in mice", "conditions": "mouse, in vivo, po; administered orally in mice"}, "mice": {"test_system": "mice", "assay": "Acute oral toxicity in mice", "conditions": "mouse, in vivo"}},
  "note": "pIC50: −log10 of the molar value.",
  "data": [
    {"smiles": "NC(=O)C1(N2CCCCC2)CCN(CCCN2c3ccccc3CCc3ccccc32)CC1", "note": "[carpipramine, 5-[3-(4-carbamoyl-4-piperidinopiperidino)-1-propyl]-10,11-dihydrodibenz[b,f]azepine]", "values": [
      {"measurement": "pIC50", "setting": "[1]", "value": 8.52},
      {"measurement": "ED50", "setting": "[2]", "value": 8, "unit": "mg/kg"},
      {"measurement": "LD50", "setting": "[3]", "value": 250, "unit": "mg/kg"},
      {"measurement": "toxicity", "setting": "mice", "value": "low toxicity"}
    ]}
  ]
}
